Measured values published in patent US8871767B2, “2-arylimidazo[1,2-B]pyridazine, 2-phenylimidazo[1,2-A]pyridine, and 2-phenylimidazo[1,2-A]pyrazine derivatives” (Hengrui (USA) Ltd., priority 2010, dated 2014).

Tested on: Hedgehog pathway activation (GLi-luciferase reporter) in Shh Light II reporter cells
Test: Hedgehog pathway activation on Shh Light II reporter cells measured by luciferase activity
Format: cell-based
Conditions: Mus musculus, Shh Light II, hShh activation, read-out: Shh (IC50, inhibition of Hedgehog pathway activation)
Protocol: Hedgehog conditioned media was obtained by transfecting 293H cells with the full length gene encoding human Sonic Hedgehog (hShh) inserted into the pCMV6 expression vector, which contains a neomycin selectable marker and expresses the protein of interest with a C-terminal FLAG affinity tag. After selection in G418 containing media, conditioned media from Hedgehog expressing clones were tested for the ability to activate the hedgehog-responsive GLi-luciferase reporter in the Shh Light II cell line obtained by license from John Hopkins University (Taipale J, et al. Effects of oncogenic mutations in Smoothened and Patched can be reversed by cyclopamine. Nature 406: 1005-1009, 2000).
A test compound library was screened against hShh and 500 nM SAG (a direct agonist of the Smoothened receptor) activated 10T1/2/Smo#3 cells and Shh Light II reporter cells for the ability to block Hedgehog pathway activation. Concurrently, cell viability was measured by utilizing Celltiter-Blue® (Promega, Madison Wis.) viability assay. Active compounds were defined as those that inhibited Hedgehog signaling by greater than 50% with no concurrent loss in cell viability.
Their inhibitory activity against Hedgehog pathway activation on 10T1/2/Smo#3 cells as measured by ALP activity and Shh Light II reporter cells as measured by luciferase activity is shown in Table 1 below. In Table 1, +++ stands for an IC50 value that is less than 0.3 μM, ++ between 0.3 and 3 μM, + between 3 and 30 μM.
Additional data for compounds of the invention is shown below in Table 2. Their inhibitory activities against Hedgehog pathway activation are shown as IC50 values in μM on 10T1/2/Smo#3 cells as measured by ALP activity, or on Shh Light II reporter cells as measured by luciferase activity (hShh activation).

Row | SMILES | IC50 [nM]
1 | Cc1ccc(-c2cn3nc(-c4cccnc4C(F)(F)F)ccc3n2)cc1NS(=O)(=O)c1cccc(C=CC(=O)Nc2ccccc2N)c1 [compound 624, N-(2-aminophenyl)-3-(3-(N-(2-methyl-5-(6-(2-(trifluoromethyl)pyridin-3-yl)imidazo[1,2-b]pyridazin-2-yl)phenyl)sulfamoyl)phenyl)acrylamide] | 824
2 | CC(C)(C)C(=O)Nc1cc(-c2cn3nc(N4CCCC4CO)ccc3n2)ccc1C(F)(F)F (stereo not drawn) [Example 348, N-(5-(6-(2-(hydroxymethyl)pyrrolidin-1-yl)imidazo[1,2-b]pyridazin-2-yl)-2-(trifluoromethyl)phenyl)pivalamide] | 339
3 | Cc1ccc(C2CN3N=C(c4cccnc4C(F)(F)F)C=CC3=N2)cc1NC(=O)C(C)(C)CN (stereo not drawn) [compound 622, 3-amino-2,2-dimethyl-N-(2-methyl-5-(6-(2-(trifluoromethyl)pyridin-3-yl)-2,3-dihydroimidazo[1,2-b]pyridazin-2-yl)phenyl)propanamide] | 534
4 | CC(C)(C)C(=O)Nc1cc(-c2cn3nc(NC4CCNCC4)ccc3n2)ccc1C(F)(F)F [Example 330, N-(5-(6-(piperidin-4-ylamino)imidazo[1,2-b]pyridazin-2-yl)-2-(trifluoromethyl)phenyl)pivalamide] | 676
5 | CCOC(=O)CCCOc1cc(-c2ccc3nc(-c4ccc(C)c(NC(=O)C(C)(C)C)c4)cn3n2)cc(C(F)(F)F)n1 [Example 431, ethyl 4-(4-(2-(4-methyl-3-pivalamidophenyl)imidazo[1,2-b]pyridazin-6-yl)-6-(trifluoromethyl)pyridin-2-yloxy)butanoate] | 422
6 | CCOC(=O)CC(=O)Nc1cc(-c2cn3nc(-c4cccnc4C(F)(F)F)ccc3n2)ccc1C [Example 435, ethyl 3-(2-methyl-5-(6-(2-(trifluoromethyl)pyridin-3-yl)imidazo[1,2-b]pyridazin-2-yl)phenylamino)-3-oxopropanoate] | 1270
7 | CCOC(=O)C=Cc1cccc(S(=O)(=O)Nc2ccc3nc(-c4ccc(C)c(NC(=O)C(C)(C)C)c4)cn3n2)c1 [compound 603] | 8180
8 | CC(C)c1ccccc1-c1ccc2nc(-c3ccc(C(F)(F)F)c(NC(=O)C(C)(C)C)c3)cn2n1 [Example 324, N-(5-(6-(2-isopropylphenyl)imidazo[1,2-b]pyridazin-2-yl)-2-(trifluoromethyl)phenyl)pivalamide] | 1460
9 | Cc1ccc(-c2cn3nc(-c4cccnc4C(F)(F)F)ccc3n2)cc1C(N)=O [Example 482, 2-methyl-5-(6-(2-(trifluoromethyl)pyridin-3-yl)imidazo[1,2-b]pyridazin-2-yl)benzamide] | > 10000
10 | Cc1ccc(-c2cn3nc(-c4ccc(C(=O)NOC5CCCCO5)cc4)ccc3n2)cc1NC(=O)C(C)(C)C (stereo not drawn) [compound 584] | 1900
11 | CC(C)(C)C(=O)Nc1cc(-c2cn3nc(-c4cccc(CO)c4)ccc3n2)ccc1C(F)(F)F [Example 323, N-(5-(6-(3-(hydroxymethyl)phenyl)imidazo[1,2-b]pyridazin-2-yl)-2-(trifluoromethyl)phenyl)pivalamide] | 2580
12 | COC(=O)CCCCC(=O)Nc1ccc(-c2ccc3nc(-c4ccc(C)c(NC(=O)C(C)(C)C)c4)cn3n2)c(C(F)(F)F)c1 [compound 510] | 379
13 | CCOC(=O)C=Cc1cccc(S(=O)(=O)Nc2cc(-c3cn4nc(Cl)ccc4n3)ccc2C)c1 [compound 607] | 2100
14 | CC(C)(C)C(=O)Nc1cc(-c2cn3nc(N4CCNCC4)ccc3n2)ccc1C(F)(F)F [Example 328, N-(5-(6-(piperazin-1-yl)imidazo[1,2-b]pyridazin-2-yl)-2-(trifluoromethyl)phenyl)pivalamide] | 3540
15 | CCOC(=O)C=Cc1cccc(S(=O)(=O)Nc2cc(-c3cn4nc(C=CC(=O)OCC)ccc4n3)ccc2C)c1 [compound 608] | 2040
16 | Cc1ccc(-c2cn3nc(NCc4cccc(C=CC(=O)NO)c4)ccc3n2)cc1NC(=O)C(C)(C)C [compound 614] | 4370
17 | CC(C)(C)C(=O)Nc1cc(-c2cn3nc(-c4cccnc4N)ccc3n2)ccc1C(F)(F)F [Example 344, N-(5-(6-(2-aminopyridin-3-yl)imidazo[1,2-b]pyridazin-2-yl)-2-(trifluoromethyl)phenyl)pivalamide] | 8740

Second part, the molecule after the results:

Row | IC50 [nM] | SMILES
18 | 353 | Cc1ccc(-c2cn3nc(-c4cncc(F)c4)ccc3n2)cc1NC(=O)C(C)(C)C [Example 407, N-(5-(6-(5-fluoropyridin-3-yl)imidazo[1,2-b]pyridazin-2-yl)-2-methylphenyl)pivalamide]
19 | 1130 | Cc1ccc(-c2cn3nc(-c4ccc(C(N)=NO)cc4)ccc3n2)cc1NC(=O)C(C)(C)C [compound 546]
20 | 360 | CC(=O)Nc1ccc(-c2ccc3nc(-c4ccc(C)c(NC(=O)C(C)(C)C)c4)cn3n2)c(C)n1 [compound 504, N-(5-(6-(6-acetamido-2-methylpyridin-3-yl)imidazo[1,2-b]pyridazin-2-yl)-2-methylphenyl)pivalamide]
21 | 350 | Cc1ccc(-c2cn3nc(-c4ccc(-c5nnco5)cc4)ccc3n2)cc1NC(=O)C(C)(C)C [compound 539]
22 | 3200 | Cc1ccc(-c2cn3nc(Cl)ccc3n2)cc1NC(=O)C(C)(C)C#N [compound 620]
23 | 1560 | Cc1ccc(-c2cn3nc(-c4ccc(N)nc4)ccc3n2)cc1NC(=O)C(C)(C)C [Example 402, N-(5-(6-(6-aminopyridin-3-yl)imidazo[1,2-b]pyridazin-2-yl)-2-methylphenyl)pivalamide]
24 | 1450 | Cc1ccc(-c2cn3nc(N4CCC(F)(F)CC4)ccc3n2)cc1NC(=O)C(C)(C)C [Example 282, N-(5-(6-(4,4-difluoropiperidin-1-yl)imidazo[1,2-b]pyridazin-2-yl)-2-methylphenyl)pivalamide]
25 | 348 | Cc1ccc(-c2cn3nc(NS(=O)(=O)c4cccc(Br)c4)ccc3n2)cc1NC(=O)C(C)(C)C [compound 595]
26 | 441 | CNC(=O)c1ccc(-c2ccc3nc(-c4ccc(C)c(NC(=O)C(C)(C)C)c4)cn3n2)cc1 [compound 525]
27 | 63 | Cc1ccc(-c2cn3nc(-c4cc(C(N)=NO)ccc4C)ccc3n2)cc1NC(=O)C(C)(C)C [compound 577]
28 | 580 | Cc1ccc(-c2cn3nc(-c4c(C)noc4C)ccc3n2)cc1NC(=O)C(C)(C)C [compound 502]
29 | 340 | Cc1ccc(-c2cn3nc(-c4ccc(Cl)nc4)ccc3n2)cc1NC(=O)C(C)(C)C [Example 408, N-(5-(6-(6-chloropyridin-3-yl)imidazo[1,2-b]pyridazin-2-yl)-2-methylphenyl)pivalamide]
30 | 430 | Cc1ccc(-c2cn3nc(-c4ccc(C(N)=O)cn4)ccc3n2)cc1NC(=O)C(C)(C)C [compound 538, 6-(2-(4-methyl-3-pivalamidophenyl)imidazo[1,2-b]pyridazin-6-yl)nicotinamide]
31 | 2020 | CC1CNCCN1c1ccc2nc(-c3ccc(C(F)(F)F)c(NC(=O)C(C)(C)C)c3)cn2n1 (stereo not drawn) [Example 329, N-(5-(6-(2-methylpiperazin-1-yl)imidazo[1,2-b]pyridazin-2-yl)-2-(trifluoromethyl)phenyl)pivalamide]
32 | 1380 | COC(=O)c1csc(-c2ccc3nc(-c4ccc(C)c(NC(=O)C(C)(C)C)c4)cn3n2)n1 [Example 446, methyl 2-(2-(4-methyl-3-pivalamidophenyl)imidazo[1,2-b]pyridazin-6-yl)thiazole-4-carboxylate]
33 | 1120 | Cc1ccc(-c2cn3nc(-c4cccc(CO)n4)ccc3n2)cc1NC(=O)C(C)(C)C [Example 460, N-(5-(6-(6-(hydroxymethyl)pyridin-2-yl)imidazo[1,2-b]pyridazin-2-yl)-2-methylphenyl)pivalamide]
34 | 293 | CC(=O)Nc1ncc(-c2ccc3nc(-c4ccc(C)c(NC(=O)C(C)(C)C)c4)cn3n2)s1 [Example 447, N-(5-(6-(2-acetamidothiazol-5-yl)imidazo[1,2-b]pyridazin-2-yl)-2-methylphenyl)pivalamide]
35 | 418 | Cc1ccc(-c2cn3nc(-c4ccc(N)cc4)ccc3n2)cc1NC(=O)C(C)(C)C [compound 550]
36 | 157 | Cc1ccc(-c2cn3nc(NCc4ccc(C(=O)NO)cc4)ccc3n2)cc1NC(=O)C(C)(C)C [compound 604]
37 | 5490 | CC(C)(C)C(=O)Nc1cc(-c2cn3nc(-c4ccccc4N)ccc3n2)ccc1C(F)(F)F [Example 345, N-(5-(6-(2-aminophenyl)imidazo[1,2-b]pyridazin-2-yl)-2-(trifluoromethyl)phenyl)pivalamide]
38 | 87 | Cc1ccc(-c2cn3nc(-c4ccc(C(=N)NN)cc4C(F)(F)F)ccc3n2)cc1NC(=O)C(C)(C)C [compound 586]

Same assay, conditions: hShh activation, read-out: Shh (IC50, inhibition of Hedgehog pathway activation)

Row | IC50 [nM] | SMILES
39 | 347 | CC(C)(C)C(=O)Nc1cc(-c2cn3nc(N4CCC(N)C4)ccc3n2)ccc1C(F)(F)F (stereo not drawn) [Example 319, N-(5-(6-(3-aminopyrrolidin-1-yl)imidazo[1,2-b]pyridazin-2-yl)-2-(trifluoromethyl)phenyl)pivalamide]
